{"source": "ChEMBL document CHEMBL1130820", "about": "“Search for alpha 1-adrenoceptor subtypes selective antagonists: design, synthesis and biological activity of cystazosin, an alpha 1D-adrenoceptor antagonist” (Bioorg Med Chem Lett, 1998)", "key": {"D(2) dopamine receptor": {"target": "D(2) dopamine receptor (Rattus norvegicus, UniProt P61169)", "sequence (P61169 whole entry)": "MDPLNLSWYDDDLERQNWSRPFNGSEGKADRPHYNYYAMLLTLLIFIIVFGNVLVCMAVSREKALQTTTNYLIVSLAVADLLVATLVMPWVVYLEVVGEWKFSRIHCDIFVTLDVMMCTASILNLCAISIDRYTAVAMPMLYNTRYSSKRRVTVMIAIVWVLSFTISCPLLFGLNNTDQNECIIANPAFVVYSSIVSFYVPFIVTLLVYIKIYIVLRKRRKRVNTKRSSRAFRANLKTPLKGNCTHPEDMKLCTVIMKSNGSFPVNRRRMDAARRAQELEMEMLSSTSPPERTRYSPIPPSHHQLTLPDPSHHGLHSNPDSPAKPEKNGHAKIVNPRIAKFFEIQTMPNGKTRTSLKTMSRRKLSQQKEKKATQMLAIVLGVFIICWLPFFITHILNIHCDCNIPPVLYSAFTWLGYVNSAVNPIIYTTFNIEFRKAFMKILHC", "assay": "Antagonistic affinity against rat striatum Dopamine receptor D2", "assay_type": "functional, tissue-based"}, "[1]": {"target": "T1, Alpha-1A adrenergic receptor (Rattus norvegicus, UniProt P43140)", "T1 sequence (P43140 whole entry)": "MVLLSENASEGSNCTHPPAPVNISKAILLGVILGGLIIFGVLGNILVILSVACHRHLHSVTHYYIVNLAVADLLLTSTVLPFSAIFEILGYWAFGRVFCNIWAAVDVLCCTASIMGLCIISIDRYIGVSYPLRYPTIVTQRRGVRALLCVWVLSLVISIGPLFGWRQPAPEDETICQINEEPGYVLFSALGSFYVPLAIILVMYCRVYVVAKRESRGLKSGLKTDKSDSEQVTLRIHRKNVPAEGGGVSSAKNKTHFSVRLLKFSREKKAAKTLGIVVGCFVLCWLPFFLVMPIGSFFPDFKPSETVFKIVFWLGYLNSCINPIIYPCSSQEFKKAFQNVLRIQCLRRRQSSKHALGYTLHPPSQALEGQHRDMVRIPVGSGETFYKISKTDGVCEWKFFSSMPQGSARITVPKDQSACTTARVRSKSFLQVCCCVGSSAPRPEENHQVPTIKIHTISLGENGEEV", "assay": "Antagonistic affinity against Alpha-1A adrenergic receptor was determined in isolated prostatic vas deferens tissue from rat", "assay_type": "functional, tissue-based", "conditions": "read-out: pA2 (converted)"}, "[2]": {"target": "T2, Adrenergic receptor alpha-2 (Rattus norvegicus, UniProt P22086+P19328+P22909)", "T2 sequence (P22086 whole entry)": "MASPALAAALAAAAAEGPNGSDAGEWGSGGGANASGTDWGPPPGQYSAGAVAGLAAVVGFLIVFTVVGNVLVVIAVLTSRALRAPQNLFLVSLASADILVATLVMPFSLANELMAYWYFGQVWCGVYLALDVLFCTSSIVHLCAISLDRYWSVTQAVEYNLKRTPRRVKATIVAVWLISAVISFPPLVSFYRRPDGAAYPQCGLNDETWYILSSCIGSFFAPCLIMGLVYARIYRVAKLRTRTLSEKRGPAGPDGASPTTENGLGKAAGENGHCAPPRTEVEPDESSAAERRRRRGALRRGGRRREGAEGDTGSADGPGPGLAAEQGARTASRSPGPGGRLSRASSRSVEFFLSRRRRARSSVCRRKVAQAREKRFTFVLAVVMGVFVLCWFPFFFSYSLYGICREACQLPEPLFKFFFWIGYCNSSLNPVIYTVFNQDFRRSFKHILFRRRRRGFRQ", "T2 sequence (P19328 whole entry)": "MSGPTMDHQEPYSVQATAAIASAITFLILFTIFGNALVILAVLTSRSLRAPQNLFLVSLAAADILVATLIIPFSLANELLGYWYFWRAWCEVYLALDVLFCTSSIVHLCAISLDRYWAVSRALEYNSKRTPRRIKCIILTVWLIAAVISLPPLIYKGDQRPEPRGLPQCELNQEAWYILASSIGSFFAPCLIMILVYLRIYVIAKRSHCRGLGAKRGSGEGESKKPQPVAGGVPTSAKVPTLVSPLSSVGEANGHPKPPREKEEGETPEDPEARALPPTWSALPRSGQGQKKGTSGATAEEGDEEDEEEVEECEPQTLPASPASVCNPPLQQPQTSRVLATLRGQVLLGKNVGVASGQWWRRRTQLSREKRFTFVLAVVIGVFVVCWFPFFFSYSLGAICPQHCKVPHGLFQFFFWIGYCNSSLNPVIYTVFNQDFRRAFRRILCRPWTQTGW", "T2 sequence (P22909 whole entry)": "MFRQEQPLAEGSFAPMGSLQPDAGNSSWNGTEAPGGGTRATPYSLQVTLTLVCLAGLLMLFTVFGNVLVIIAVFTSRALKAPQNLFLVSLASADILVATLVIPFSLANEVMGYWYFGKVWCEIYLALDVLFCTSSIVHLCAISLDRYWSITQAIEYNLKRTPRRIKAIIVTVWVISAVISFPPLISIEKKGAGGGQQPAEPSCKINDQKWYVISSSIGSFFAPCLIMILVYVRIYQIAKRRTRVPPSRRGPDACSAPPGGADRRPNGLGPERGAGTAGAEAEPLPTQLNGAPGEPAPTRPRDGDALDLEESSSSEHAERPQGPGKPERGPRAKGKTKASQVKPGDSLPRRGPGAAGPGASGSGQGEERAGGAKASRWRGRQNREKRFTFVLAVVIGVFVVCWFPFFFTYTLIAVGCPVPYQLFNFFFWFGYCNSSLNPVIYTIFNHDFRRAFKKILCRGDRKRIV", "assay": "Antagonistic affinity against native rat cortex Alpha-2 adrenergic receptor", "assay_type": "functional, tissue-based"}, "[3]": {"target": "T3, Alpha-1B adrenergic receptor (Rattus norvegicus, UniProt P15823)", "T3 sequence (P15823 whole entry)": "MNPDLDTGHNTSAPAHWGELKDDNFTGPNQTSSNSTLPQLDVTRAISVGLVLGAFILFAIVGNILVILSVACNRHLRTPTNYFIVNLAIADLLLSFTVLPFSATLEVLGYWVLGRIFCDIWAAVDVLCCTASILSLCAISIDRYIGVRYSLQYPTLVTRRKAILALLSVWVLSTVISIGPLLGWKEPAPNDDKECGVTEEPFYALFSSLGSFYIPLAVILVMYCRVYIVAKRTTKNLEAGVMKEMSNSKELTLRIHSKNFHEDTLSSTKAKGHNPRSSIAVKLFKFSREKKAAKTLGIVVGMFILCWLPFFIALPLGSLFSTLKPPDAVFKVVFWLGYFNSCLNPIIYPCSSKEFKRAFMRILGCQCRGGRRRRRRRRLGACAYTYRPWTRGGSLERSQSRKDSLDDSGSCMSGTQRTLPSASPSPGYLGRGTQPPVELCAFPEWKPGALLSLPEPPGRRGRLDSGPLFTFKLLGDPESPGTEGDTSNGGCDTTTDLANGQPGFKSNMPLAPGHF", "assay": "Antagonistic affinity against Alpha-1B adrenergic receptor was determined in isolated spleen tissue from rat", "assay_type": "functional, tissue-based", "conditions": "read-out: pA2 (converted)"}, "[4]": {"target": "T4, Alpha-1D adrenergic receptor (Rattus norvegicus, UniProt P23944)", "T4 sequence (P23944 whole entry)": "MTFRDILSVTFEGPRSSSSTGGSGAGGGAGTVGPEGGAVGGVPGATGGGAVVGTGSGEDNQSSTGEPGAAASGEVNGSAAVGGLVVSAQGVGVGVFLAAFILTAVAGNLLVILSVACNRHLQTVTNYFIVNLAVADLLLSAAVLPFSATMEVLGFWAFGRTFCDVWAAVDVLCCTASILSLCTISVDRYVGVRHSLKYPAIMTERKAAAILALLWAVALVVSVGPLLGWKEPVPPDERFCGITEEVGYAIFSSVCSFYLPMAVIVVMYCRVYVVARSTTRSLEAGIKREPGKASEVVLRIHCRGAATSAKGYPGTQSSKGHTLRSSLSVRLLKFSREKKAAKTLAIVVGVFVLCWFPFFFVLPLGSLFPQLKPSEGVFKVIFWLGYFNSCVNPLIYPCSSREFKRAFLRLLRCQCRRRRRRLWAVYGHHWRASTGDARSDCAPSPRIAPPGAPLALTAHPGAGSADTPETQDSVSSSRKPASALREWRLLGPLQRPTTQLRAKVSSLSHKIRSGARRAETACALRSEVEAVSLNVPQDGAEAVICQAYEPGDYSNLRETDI", "assay": "Antagonistic affinity against Alpha-1D adrenergic receptor was determined in isolated thoracic aorta from rat", "assay_type": "functional, tissue-based", "conditions": "read-out: pA2 (converted)"}, "[5]": {"target": "T5, 5-hydroxytryptamine receptor 1A (Homo sapiens, UniProt P08908)", "T5 sequence (P08908 whole entry)": "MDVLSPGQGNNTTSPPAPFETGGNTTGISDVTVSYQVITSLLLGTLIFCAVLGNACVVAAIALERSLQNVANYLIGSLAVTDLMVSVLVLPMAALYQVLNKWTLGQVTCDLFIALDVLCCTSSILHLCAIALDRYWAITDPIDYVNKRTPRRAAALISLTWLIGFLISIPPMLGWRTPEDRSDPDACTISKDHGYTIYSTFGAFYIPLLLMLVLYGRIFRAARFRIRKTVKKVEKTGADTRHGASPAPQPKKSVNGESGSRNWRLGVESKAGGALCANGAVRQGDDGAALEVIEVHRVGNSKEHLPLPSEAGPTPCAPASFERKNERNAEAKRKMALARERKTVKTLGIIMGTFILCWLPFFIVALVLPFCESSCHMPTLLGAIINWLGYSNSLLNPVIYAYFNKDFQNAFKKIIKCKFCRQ", "assay": "Antagonistic affinity against cloned human 5-hydroxytryptamine 1A receptor", "assay_type": "functional"}}}
{"smiles": "COc1cc2nc(N(C)CCCCCCN(C)C(=O)c3ccco3)nc(N)c2cc1OC", "values": [{"measurement": "Ki", "setting": "D(2) dopamine receptor", "value": 2340, "unit": "nM"}, {"measurement": "Kb", "setting": "[1]", "value": 0.912, "unit": "nM"}, {"measurement": "Log Ki", "setting": "[2]", "value": -7}, {"measurement": "Kb", "setting": "[3]", "value": 0.145, "unit": "nM"}, {"measurement": "Kb", "setting": "[4]", "value": 0.646, "unit": "nM"}, {"measurement": "Ki", "setting": "[5]", "value": "> 1000", "unit": "nM"}]}
{"smiles": "COc1cc2nc(N(C)CCSSCCN(C)C(=O)c3ccco3)nc(N)c2cc1OC", "values": [{"measurement": "Kb", "setting": "[1]", "value": 29.5, "unit": "nM"}, {"measurement": "Log Ki", "setting": "[2]", "value": -6.23}, {"measurement": "Kb", "setting": "[3]", "value": 32.4, "unit": "nM"}, {"measurement": "Kb", "setting": "[4]", "value": 2.88, "unit": "nM"}, {"measurement": "Ki", "setting": "[5]", "value": "> 1000", "unit": "nM"}]}
{"smiles": "COc1cc2nc(NCCSSCCNC(=O)c3ccco3)nc(N)c2cc1OC", "values": [{"measurement": "Kb", "setting": "[1]", "value": 1780, "unit": "nM"}, {"measurement": "Kb", "setting": "[3]", "value": 115, "unit": "nM"}, {"measurement": "Kb", "setting": "[4]", "value": 45.7, "unit": "nM"}]}
{"smiles": "COc1ccccc1N1CCN(CCN2C(=O)CC3(CCCC3)CC2=O)CC1.Cl.Cl", "values": [{"measurement": "Ki", "setting": "D(2) dopamine receptor", "value": 47.9, "unit": "nM"}, {"measurement": "Log Ki", "setting": "[2]", "value": -5.98}, {"measurement": "Kb", "setting": "[3]", "value": 28.2, "unit": "nM"}, {"measurement": "Ki", "setting": "[5]", "value": 1.74, "unit": "nM"}]}
{"smiles": "COc1cc2nc(N3CCN(C(=O)c4ccco4)[C@H]4CCCC[C@H]43)nc(N)c2cc1OC", "note": "[CYCLAZOSIN]", "values": [{"measurement": "Ki", "setting": "D(2) dopamine receptor", "value": 8320, "unit": "nM"}, {"measurement": "Kb", "setting": "[1]", "value": 33.1, "unit": "nM"}, {"measurement": "Log Ki", "setting": "[2]", "value": -6.13}, {"measurement": "Ki", "setting": "[5]", "value": "> 1000", "unit": "nM"}]}
{"smiles": "COc1cc2nc(N3CCN(C(=O)c4ccco4)CC3)nc(N)c2cc1OC", "note": "[PRAZOSIN]", "values": [{"measurement": "Ki", "setting": "D(2) dopamine receptor", "value": "> 10000", "unit": "nM"}]}
